{
  "source": "patent US9832996B2",
  "about": "“Use of sarmentine and its analogues with an herbicide, and compositions thereof” (Marrone Bio Innovations, Inc., priority 2013, dated 2017)",
  "assay_type_in_all_cases": "in vivo",
  "details_in_all_cases": "14 days after application",
  "key": {"[1]": {"system": "Agrostis stolonifera", "assay": "Post-emergent spray of sarmentine and paclobutrazol on grass seedlings, fresh weight and Colby synergy", "procedure": "(§1) Post-emergent effects of sarmentine and paclobutrazol were evaluated on annual bluegrass (Poa annua), Kentucky bluegrass (Poa pratensis), and Creeping Bentgrass (Agrostis stolonifera). For each of the three species tested, fifteen seedlings at the 1-2 leaf stage, in 2.5 cm square pots containing plant growth mix, were sprayed with two suboptimal doses of sarmentine, two suboptimal doses of paclobutrazol, or a factorial combination thereof, as shown in Tables 1-3. A volume of 40 gal/Acre was applied, using a cabinet track sprayer. Negative controls were sprayed with water. Pots were randomly placed in a growth room at 25° C. and 50% relative humidity, and watered as necessary. Treatments were arranged in a 2 k factorial design with three repeat measures and evaluated for fresh weight at 14 days after application. Potential synergy was evaluated by calculating the ratio of observed (E) to expected (Ee) percent of control weight, according to Colby's formula. Colby (1967) Weeds 15:20-22. Percent control was calculated in relation to the untreated control (0% control) with 100% control denoting no living green tissue remaining at 14 days after treatment. An E/Ee score above 1.0 indicates a synergistic interaction between two substances."}, "[2]": {"system": "Poa annua", "assay": "Post-emergent spray of sarmentine and paclobutrazol on grass seedlings, fresh weight and Colby synergy", "procedure": "as §1"}, "[3]": {"system": "Poa pratensis", "assay": "Post-emergent spray of sarmentine and paclobutrazol on grass seedlings, fresh weight and Colby synergy", "procedure": "as §1"}, "[4]": {"system": "Agrostis stolonifera", "assay": "Post-emergent spray of sarmentine and amicarbazone on grass seedlings, fresh weight and Colby synergy", "procedure": "as §1, with “and amicarbazone” for “and paclobutrazol”, “pratensis), Perennial ryegrass (Lolium perenne), Tall fescue (Festuca arundinacea)” for “pratensis),”, “the five” for “the three”, “of amicarbazone,” for “of paclobutrazol,”, “Tables 4-8.” for “Tables 1-3.”"}, "[5]": {"system": "Festuca arundinacea", "assay": "Post-emergent spray of sarmentine and amicarbazone on grass seedlings, fresh weight and Colby synergy", "procedure": "as §1, with “and amicarbazone” for “and paclobutrazol”, “pratensis), Perennial ryegrass (Lolium perenne), Tall fescue (Festuca arundinacea)” for “pratensis),”, “the five” for “the three”, “of amicarbazone,” for “of paclobutrazol,”, “Tables 4-8.” for “Tables 1-3.”"}, "[6]": {"system": "Lolium perenne", "assay": "Post-emergent spray of sarmentine and amicarbazone on grass seedlings, fresh weight and Colby synergy", "procedure": "as §1, with “and amicarbazone” for “and paclobutrazol”, “pratensis), Perennial ryegrass (Lolium perenne), Tall fescue (Festuca arundinacea)” for “pratensis),”, “the five” for “the three”, “of amicarbazone,” for “of paclobutrazol,”, “Tables 4-8.” for “Tables 1-3.”"}, "[7]": {"system": "Poa annua", "assay": "Post-emergent spray of sarmentine and amicarbazone on grass seedlings, fresh weight and Colby synergy", "procedure": "as §1, with “and amicarbazone” for “and paclobutrazol”, “pratensis), Perennial ryegrass (Lolium perenne), Tall fescue (Festuca arundinacea)” for “pratensis),”, “the five” for “the three”, “of amicarbazone,” for “of paclobutrazol,”, “Tables 4-8.” for “Tables 1-3.”"}, "[8]": {"system": "Poa pratensis", "assay": "Post-emergent spray of sarmentine and amicarbazone on grass seedlings, fresh weight and Colby synergy", "procedure": "as §1, with “and amicarbazone” for “and paclobutrazol”, “pratensis), Perennial ryegrass (Lolium perenne), Tall fescue (Festuca arundinacea)” for “pratensis),”, “the five” for “the three”, “of amicarbazone,” for “of paclobutrazol,”, “Tables 4-8.” for “Tables 1-3.”"}, "[9]": {"details": "paclobutrazol 0.042 mg/ml alone"}, "[10]": {"details": "paclobutrazol 0.481 mg/ml alone"}, "[11]": {"details": "paclobutrazol 0.0467 mg/ml alone"}, "[12]": {"details": "paclobutrazol 0.293 mg/ml alone"}},
  "data": [
    {"smiles": "CC(C)(C)[C@@H](O)[C@@H](Cc1ccc(Cl)cc1)n1cncn1", "note": "(racemic) [Paclobutrazol]", "values": [
      {"measurement": "% Control", "setting": "[1]; [9]", "result": 0.0, "unit": "%"},
      {"measurement": "AVG Fresh Weight", "setting": "[1]; [9]", "result": 0.76, "unit": "g"},
      {"measurement": "% Control", "setting": "[1]; [10]", "result": 2.3, "unit": "%"},
      {"measurement": "AVG Fresh Weight", "setting": "[1]; [10]", "result": 0.65, "unit": "g"},
      {"measurement": "% Control", "setting": "[2]; paclobutrazol 0.84 mg/ml alone", "result": 20.8, "unit": "%"},
      {"measurement": "AVG Fresh Weight", "setting": "[2]; paclobutrazol 0.84 mg/ml alone", "result": 0.48, "unit": "g"},
      {"measurement": "% Control", "setting": "[2]; paclobutrazol 1.37 mg/ml alone", "result": 7.9, "unit": "%"},
      {"measurement": "AVG Fresh Weight", "setting": "[2]; paclobutrazol 1.37 mg/ml alone", "result": 0.55, "unit": "g"},
      {"measurement": "% Control", "setting": "[3]; [11]", "result": 14.2, "unit": "%"},
      {"measurement": "AVG Fresh Weight", "setting": "[3]; [11]", "result": 0.6, "unit": "g"},
      {"measurement": "% Control", "setting": "[3]; [12]", "result": 0.0, "unit": "%"},
      {"measurement": "AVG Fresh Weight", "setting": "[3]; [12]", "result": 0.7, "unit": "g"}
    ]},
    {"smiles": "CC(C)c1nn(C(=O)NC(C)(C)C)c(=O)n1N", "note": "[Amicarbazone]", "values": [
      {"measurement": "% Control", "setting": "[4]; amicarbazone 0.251 mg/ml alone", "result": 19.6, "unit": "%"},
      {"measurement": "AVG Fresh Weight", "setting": "[4]; amicarbazone 0.251 mg/ml alone", "result": 0.56, "unit": "g"},
      {"measurement": "% Control", "setting": "[4]; amicarbazone 0.481 mg/ml alone", "result": 29.7, "unit": "%"},
      {"measurement": "AVG Fresh Weight", "setting": "[4]; amicarbazone 0.481 mg/ml alone", "result": 0.49, "unit": "g"},
      {"measurement": "% Control", "setting": "[5]; amicarbazone 0.315 mg/ml alone", "result": 8.1, "unit": "%"},
      {"measurement": "AVG Fresh Weight", "setting": "[5]; amicarbazone 0.315 mg/ml alone", "result": 2.3, "unit": "g"},
      {"measurement": "% Control", "setting": "[5]; amicarbazone 1.228 mg/ml alone", "result": 10.2, "unit": "%"},
      {"measurement": "AVG Fresh Weight", "setting": "[5]; amicarbazone 1.228 mg/ml alone", "result": 2.2, "unit": "g"},
      {"measurement": "% Control", "setting": "[6]; amicarbazone 1.03 mg/ml alone", "result": 30.9, "unit": "%"},
      {"measurement": "AVG Fresh Weight", "setting": "[6]; amicarbazone 1.03 mg/ml alone", "result": 0.96, "unit": "g"},
      {"measurement": "% Control", "setting": "[6]; amicarbazone 1.903 mg/ml alone", "result": 35.7, "unit": "%"},
      {"measurement": "AVG Fresh Weight", "setting": "[6]; amicarbazone 1.903 mg/ml alone", "result": 0.89, "unit": "g"},
      {"measurement": "% Control", "setting": "[7]; amicarbazone 1.53 mg/ml alone", "result": 39.4, "unit": "%"},
      {"measurement": "Avg Fresh Weight", "setting": "[7]; amicarbazone 1.53 mg/ml alone", "result": 0.57, "unit": "g"},
      {"measurement": "% Control", "setting": "[7]; amicarbazone 2.79 mg/ml alone", "result": 46.0, "unit": "%"},
      {"measurement": "Avg Fresh Weight", "setting": "[7]; amicarbazone 2.79 mg/ml alone", "result": 0.51, "unit": "g"},
      {"measurement": "% Control", "setting": "[8]; amicarbazone 0.31 mg/ml alone", "result": 0.0, "unit": "%"},
      {"measurement": "AVG Fresh Weight", "setting": "[8]; amicarbazone 0.31 mg/ml alone", "result": 0.84, "unit": "g"},
      {"measurement": "% Control", "setting": "[8]; amicarbazone 0.544 mg/ml alone", "result": 29.1, "unit": "%"},
      {"measurement": "AVG Fresh Weight", "setting": "[8]; amicarbazone 0.544 mg/ml alone", "result": 0.56, "unit": "g"}
    ]},
    {"smiles": "CCCCC/C=C/C=C/C(=O)N1CCCC1", "note": "[Sarmentine, N-(2E,4E-Decadienoyl) pyrrolidine]", "values": [
      {"measurement": "% Control", "setting": "[1]; sarmentine 17.43 mg/ml alone", "result": 6.4, "unit": "%"},
      {"measurement": "AVG Fresh Weight", "setting": "[1]; sarmentine 17.43 mg/ml alone", "result": 0.63, "unit": "g"},
      {"measurement": "% Control", "setting": "[1]; sarmentine 24.72 mg/ml alone", "result": 20.6, "unit": "%"},
      {"measurement": "AVG Fresh Weight", "setting": "[1]; sarmentine 24.72 mg/ml alone", "result": 0.53, "unit": "g"},
      {"measurement": "% Control", "setting": "[2]; sarmentine 12.47 mg/ml alone", "result": 0.0, "unit": "%"},
      {"measurement": "AVG Fresh Weight", "setting": "[2]; sarmentine 12.47 mg/ml alone", "result": 0.71, "unit": "g"},
      {"measurement": "% Control", "setting": "[2]; sarmentine 17.114 mg/ml alone", "result": 10.0, "unit": "%"},
      {"measurement": "AVG Fresh Weight", "setting": "[2]; sarmentine 17.114 mg/ml alone", "result": 0.54, "unit": "g"},
      {"measurement": "% Control", "setting": "[3]; sarmentine 19.15 mg/ml alone", "result": 11.3, "unit": "%"},
      {"measurement": "AVG Fresh Weight", "setting": "[3]; sarmentine 19.15 mg/ml alone", "result": 0.6, "unit": "g"},
      {"measurement": "% Control", "setting": "[3]; sarmentine 23.553 mg/ml alone", "result": 7.5, "unit": "%"},
      {"measurement": "AVG Fresh Weight", "setting": "[3]; sarmentine 23.553 mg/ml alone", "result": 0.7, "unit": "g"},
      {"measurement": "% Control", "setting": "[4]; sarmentine 17.43 mg/ml alone", "result": 0.0, "unit": "%"},
      {"measurement": "AVG Fresh Weight", "setting": "[4]; sarmentine 17.43 mg/ml alone", "result": 0.59, "unit": "g"},
      {"measurement": "% Control", "setting": "[4]; sarmentine 24.72 mg/ml alone", "result": 30.8, "unit": "%"},
      {"measurement": "AVG Fresh Weight", "setting": "[4]; sarmentine 24.72 mg/ml alone", "result": 0.48, "unit": "g"},
      {"measurement": "% Control", "setting": "[5]; sarmentine 10.27 mg/ml alone", "result": 28.4, "unit": "%"},
      {"measurement": "AVG Fresh Weight", "setting": "[5]; sarmentine 10.27 mg/ml alone", "result": 1.8, "unit": "g"},
      {"measurement": "% Control", "setting": "[5]; sarmentine 33.98 mg/ml alone", "result": 40.4, "unit": "%"},
      {"measurement": "AVG Fresh Weight", "setting": "[5]; sarmentine 33.98 mg/ml alone", "result": 1.5, "unit": "g"},
      {"measurement": "% Control", "setting": "[6]; sarmentine 10 mg/ml alone", "result": 17.7, "unit": "%"},
      {"measurement": "AVG Fresh Weight", "setting": "[6]; sarmentine 10 mg/ml alone", "result": 1.14, "unit": "g"},
      {"measurement": "% Control", "setting": "[6]; sarmentine 20 mg/ml alone", "result": 10.6, "unit": "%"},
      {"measurement": "AVG Fresh Weight", "setting": "[6]; sarmentine 20 mg/ml alone", "result": 1.24, "unit": "g"},
      {"measurement": "% Control", "setting": "[7]; sarmentine 12.47 mg/ml alone", "result": 10.3, "unit": "%"},
      {"measurement": "Avg Fresh Weight", "setting": "[7]; sarmentine 12.47 mg/ml alone", "result": 0.85, "unit": "g"},
      {"measurement": "% Control", "setting": "[7]; sarmentine 17.11 mg/ml alone", "result": 23.0, "unit": "%"},
      {"measurement": "Avg Fresh Weight", "setting": "[7]; sarmentine 17.11 mg/ml alone", "result": 0.73, "unit": "g"},
      {"measurement": "% Control", "setting": "[8]; sarmentine 19.15 mg/ml alone", "result": 9.6, "unit": "%"},
      {"measurement": "AVG Fresh Weight", "setting": "[8]; sarmentine 19.15 mg/ml alone", "result": 0.72, "unit": "g"},
      {"measurement": "% Control", "setting": "[8]; sarmentine 23.553 mg/ml alone", "result": 9.9, "unit": "%"},
      {"measurement": "AVG Fresh Weight", "setting": "[8]; sarmentine 23.553 mg/ml alone", "result": 0.72, "unit": "g"}
    ]}
  ]
}
